Measured values as given in ChEMBL document CHEMBL4184145, “Synthesis and structure-activity relationship of teixobactin analogues via convergent Ser ligation” (2017).
In brackets after ≈: the same amount, converted by molar mass.

Legend:
Staphylococcus aureus [1] = assay: Antibacterial activity against methicillin-susceptible Staphylococcus aureus ATCC 29213 by broth dilution assay; format: functional
Staphylococcus aureus [2] = assay: Antibacterial activity against methicillin-resistant Staphylococcus aureus clinical isolate SA86 by broth dilution assay; format: functional

For `CC[C@@H](C)[C@@H](NC(=O)[C@@H](CCC(N)=O)NC(=O)[C@H](CO)NC(=O)[C@@H](NC(=O)[C@@H](Cc1ccccc1)NC)C(C)C)C(=O)N[C@H](C(=O)N[C@@H](CO)C(=O)N[C@H]1C(=O)N[C@@H](C)C(=O)N[C@@H](CCCN)C(=O)N[C@@H]([C@@H](C)CC)C(=O)O[C@H]1C)[C@@H](C)CC`, the MIC (Staphylococcus aureus [1]) was 8 µg/mL (≈ 6.73 µM) and the MIC (Staphylococcus aureus [2]) was 8 to 16 µg/mL (≈ 6.73 to 13.5 µM).
With `CC[C@@H](C)[C@@H](NC(=O)[C@@H](CCC(N)=O)NC(=O)[C@H](CO)NC(=O)[C@H](Cc1ccccc1)NC(=O)[C@@H](Cc1ccccc1)NC)C(=O)N[C@H](C(=O)N[C@@H](CO)C(=O)N[C@H]1C(=O)N[C@@H](C)C(=O)N[C@@H](CCCN)C(=O)N[C@@H]([C@@H](C)CC)C(=O)O[C@H]1C)[C@@H](C)CC` the MIC (Staphylococcus aureus [1]) was no less than 32 µg/mL and the MIC (Staphylococcus aureus [2]) was no less than 32 µg/mL.
